Test results from US20240199623A1 (ILDONG PHARMACEUTICAL CO., LTD., priority 2020, published 2024).
Converted amounts (≈) assume the structure as drawn.

How the values were obtained:
[1] = Phosphate-buffered saline (PBS) solubility of compounds; format: physicochemical; conditions: aqueous buffer, thermodynamic from solid, PBS pH 7.5, 0.5 mg/mL, vortexed 90 min, filtered, LC-MS/MS, read-out: Solubility Range
Experimental: PBS solutions (pH 7.5) were prepared according to the following compositions and stored at 4° C. Test compounds were dissolved in PBS (pH 7.5) at 0.5 mg/mL and vortexed for 90 min. The PBS solution was sequentially filtered through a 0.45, 1.2, […] syringe filter. Concentration of test compounds were determined using LC-MS/MS with appropriate dilution of the samples.

human wild type-CFTR = human wild type-CFTR (Homo sapiens, UniProt P13569); test: Cell-based YFP assay; design: expressed in transfected cells; host or cells: CHO-K1 (Chinese hamster ovary); conditions: CHO-K1 cells expressing human wild type-CFTR and YFP-H148Q/I152L; forskolin 20 μM = 100% activity; read-out: Cell-based YFP Assay (EC50) Concentration Range
human wild type-CFTR, sequence (P13569 whole entry): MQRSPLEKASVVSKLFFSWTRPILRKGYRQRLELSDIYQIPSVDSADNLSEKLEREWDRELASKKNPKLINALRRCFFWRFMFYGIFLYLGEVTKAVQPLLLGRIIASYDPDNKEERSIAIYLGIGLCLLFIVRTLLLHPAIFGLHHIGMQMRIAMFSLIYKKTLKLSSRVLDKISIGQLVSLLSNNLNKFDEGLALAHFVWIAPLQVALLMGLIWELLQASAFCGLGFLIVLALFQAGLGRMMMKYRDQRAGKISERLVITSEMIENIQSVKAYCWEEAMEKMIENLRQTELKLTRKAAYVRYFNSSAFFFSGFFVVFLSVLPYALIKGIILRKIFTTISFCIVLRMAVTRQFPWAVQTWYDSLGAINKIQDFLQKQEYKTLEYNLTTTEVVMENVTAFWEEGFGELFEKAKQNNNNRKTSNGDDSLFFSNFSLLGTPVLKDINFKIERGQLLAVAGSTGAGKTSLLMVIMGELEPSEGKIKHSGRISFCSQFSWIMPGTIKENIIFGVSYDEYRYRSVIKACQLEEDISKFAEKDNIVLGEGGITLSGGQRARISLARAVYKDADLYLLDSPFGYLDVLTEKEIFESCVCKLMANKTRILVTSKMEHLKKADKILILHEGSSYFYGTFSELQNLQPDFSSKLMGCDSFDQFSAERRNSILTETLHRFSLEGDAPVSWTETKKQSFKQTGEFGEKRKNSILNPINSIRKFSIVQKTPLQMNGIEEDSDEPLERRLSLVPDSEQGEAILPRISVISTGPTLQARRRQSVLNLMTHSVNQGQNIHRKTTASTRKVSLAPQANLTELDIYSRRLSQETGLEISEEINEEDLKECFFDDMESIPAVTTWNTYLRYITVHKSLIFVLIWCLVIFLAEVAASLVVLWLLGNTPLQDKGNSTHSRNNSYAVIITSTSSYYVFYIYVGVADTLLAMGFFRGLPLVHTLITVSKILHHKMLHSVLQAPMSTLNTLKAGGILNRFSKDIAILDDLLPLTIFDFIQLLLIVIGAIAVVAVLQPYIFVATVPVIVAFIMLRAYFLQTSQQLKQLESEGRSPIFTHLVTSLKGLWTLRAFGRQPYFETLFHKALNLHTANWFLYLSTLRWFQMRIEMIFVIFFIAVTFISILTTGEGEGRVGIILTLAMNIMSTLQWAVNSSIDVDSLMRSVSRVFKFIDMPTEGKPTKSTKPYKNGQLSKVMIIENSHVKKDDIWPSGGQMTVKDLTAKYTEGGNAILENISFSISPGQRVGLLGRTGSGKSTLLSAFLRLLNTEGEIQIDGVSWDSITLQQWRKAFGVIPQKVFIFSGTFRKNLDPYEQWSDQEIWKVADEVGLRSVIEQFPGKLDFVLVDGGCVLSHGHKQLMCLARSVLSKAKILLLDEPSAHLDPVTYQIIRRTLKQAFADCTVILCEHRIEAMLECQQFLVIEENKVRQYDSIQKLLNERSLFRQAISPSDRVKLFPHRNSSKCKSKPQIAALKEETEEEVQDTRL
Procedure, shortened: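 CHO-K1 cells co-expressing human wild-type CFTR and YFP-H148Q/I152L halide sensor, grown 48 h at 37 °C, then in PBS. YFP quenching by I⁻ influx read at 37 °C after adding 140 mM I⁻ solution, sampled every 0.4 s for 14 s. Triplicates averaged; EC50 fitted.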

| solubility at 90 min [1] [µg/mL] | EC50 (human wild type-CFTR) [nM] | SMILES |
| --- | --- | --- |
| 0.1 to 10 (≈ 0.194 to 19.4 µM) | < 200 | COc1ccc(-c2ccnc3cc(C(=O)Nc4ccc(C(=O)N5CCN(C)CC5)c(O)c4)nn23)cc1OC [Compound 170, 7-(3,4-dimethoxyphenyl)-N-(3-hydroxy-4-(4-methylpiperazine-1-carbonyl)phenyl)pyrazolo [1,5-a]pyrimidine-2-carboxamide] |
| 0.1 to 10 (≈ 0.217 to 21.7 µM) | < 200 | COc1ccc(-c2ccnc3cc(C(=O)Nc4ccc(NC(=O)[C@H](C)N)cc4)nn23)cc1OC [Compound 284, (S)-N-(4-(2-amino-propanamido)phenyl)-7-(3,4-dimethoxyphenyl)pyrazolo [1,5-a]pyrimidine-2-carboxamide] |
| < 0.1 | < 200 | CCOC(=O)COc1ccc(NC(=O)c2cc3nccc(-c4ccc(OC)c(OC)c4)n3n2)cc1 [Compound 34, ethyl 2-(4-(7-(3,4-dimethoxyphenyl)pyrazolo [1,5-a]pyrimidine-2-carboxamido)phenoxy) acetate] |
| < 0.1 | < 200 | COc1ccc(-c2ccnc3cc(C(=O)Nc4ccc(C(=O)N5CCN(C(=O)OC(C)(C)C)CC5)cc4)nn23)cc1OC [Compound 51, tert-butyl 4-(4-(7-(3,4-dimethoxyphenyl)pyrazolo [1,5-a]pyrimidine-2-carboxamido)benzoyl) piperazine-1-carboxylate] |
| < 0.1 | < 200 | COc1ccc(-c2ccnc3cc(C(=O)Nc4ccc(C(=O)OCCCN5CCOCC5)cc4)nn23)cc1OC [Compound 121, 3-morpholinopropyl 4-(7-(3,4-dimethoxyphenyl)pyrazolo [1,5-a]pyrimidine-2-carboxamido)benzoate] |
| > 10 | 200 to 2000 | COc1ccc(-c2ccnc3cc(C(=O)Nc4ccc(C(=O)NCCN5CCN(C)CC5)cc4)nn23)cc1OC [Compound 178, 7-(3,4-dimethoxyphenyl)-N-(4-((2-(4-methylpiperazin-1-yl)ethyl)carbamoyl)phenyl)pyrazolo[1,5-a]pyrimidine-2-carboxamide] |

The next lines start with the molecule.

| SMILES | solubility at 90 min [1] [µg/mL] | EC50 (human wild type-CFTR) [nM] |
| --- | --- | --- |
| COC(=O)c1ccc(NC(=O)c2cc3nccc(-c4ccc(OC)c(OC)c4)n3n2)c(C)c1 [Compound 125, methyl 4-(7-(3,4-dimethoxyphenyl)pyrazolo [1,5-a]pyrimidine-2-carboxamido)-3-methylbenzoate] | < 0.1 | < 200 |
| COc1ccc(-c2ccnc3cc(C(=O)Nc4ccc(C(=O)O)c(O)c4)nn23)cc1OC [Compound 168, 4-(7-(3,4-dimethoxyphenyl)pyrazolo[1,5-a]pyrimidine-2-carboxamido)-2-hydroxybenzoic acid] | < 0.1 | 200 to 2000 |
| COC(=O)c1ccc(NC(=O)c2cc3nccc(-c4cc(OC)c(OC)c(OC)c4)n3n2)cc1 [Compound 32, methyl 4-(7-(3,4,5-trimethoxyphenyl)pyrazolo [1,5-a]pyrimidine-2-carboxamido)benzoate] | < 0.1 | < 200 |
| COc1ccc(-c2ccnc3cc(C(=O)NC45CC(C(=O)N6CCN(C(=O)OC(C)(C)C)CC6)(C4)C5)nn23)cc1OC [Compound 92, tert-butyl 4-(3-(7-(3,4-dimethoxyphenyl)pyrazolo [1,5-a]pyrimidine-2-carboxamido)bicyclo [1.1.1]pentane-1-carbonyl)piperazine-1-carboxylate] | < 0.1 | < 200 |
| COC(=O)c1ccc(NC(=O)c2cc3nccc(-c4ccc(OC)c(OC)c4)n3n2)cc1O [Compound 167, methyl 4-(7-(3,4-dimethoxyphenyl)pyrazolo [1,5-a]pyrimidine-2-carboxamido)-2-hydroxybenzoate] | < 0.1 | < 200 |
| COc1ccc(-c2ccnc3cc(C(=O)Nc4ccc(C(=O)O)cc4F)nn23)cc1OC [Compound 156, 4-(7-(3,4-dimethoxyphenyl)pyrazolo[1,5-a]pyrimidine-2-carboxamido)-3-fluorobenzoic acid] | 0.1 to 10 (≈ 0.229 to 22.9 µM) | < 200 |
